From patent EP2544684B1, “4,4-DISUBSTITUTED PIPERIDINE DERIVATIVES USEFUL AS INHIBITORS OF DIPEPTIDYL PEPTIDASE-1 (DPP-1)” (Janssen Pharmaceutica NV, priority 2010, dated 2011)
Where a name gives a salt, the structure may show the parent alone.

molecular target: T1, DPP-1 (Cathepsin C) (Homo sapiens, UniProt P53634); test: DPP-1 Inhibition Assay (in vitro), fluorogenic substrate GR-AMC; type: biochemical; conditions: IC50, recombinant human DPP-1 0.15 nM, 10 uM GR-AMC, pH 7.0, room temperature; average value where tested multiple times
T1 construct: made in house
T1 sequence (P53634 25-463): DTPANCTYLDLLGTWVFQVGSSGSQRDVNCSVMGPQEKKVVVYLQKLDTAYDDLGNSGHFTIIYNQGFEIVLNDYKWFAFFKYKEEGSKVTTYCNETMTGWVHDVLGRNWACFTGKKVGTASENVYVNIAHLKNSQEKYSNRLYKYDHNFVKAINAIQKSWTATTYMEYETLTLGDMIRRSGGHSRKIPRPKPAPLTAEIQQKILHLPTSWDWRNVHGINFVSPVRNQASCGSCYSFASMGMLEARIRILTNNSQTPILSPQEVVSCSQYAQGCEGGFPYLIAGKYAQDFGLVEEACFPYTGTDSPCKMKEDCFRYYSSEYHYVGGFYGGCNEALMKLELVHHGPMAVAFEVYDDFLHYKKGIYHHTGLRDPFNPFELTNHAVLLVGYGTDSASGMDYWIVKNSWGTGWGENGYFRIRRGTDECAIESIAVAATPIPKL
Description: Test compounds were assessed for DPP-1 (Cathepsin C) inhibitory activity using a fluorogenic substrate, GR-AMC (Glycine-Arginine-amino-4-methylcoumarin, Bachem, I-1215). The amount of amino-methylcoumarin released is proportional to the DPP-1 activity, and the reaction is monitored kinetically with a Molecular Devices plate reader using black 96-well plates.
All compounds were tested under room temperature conditions. The assay buffer consisted of 50 mM HEPES, pH 7.0, 100 mM NaCl, 2 mM glutathione (GSH), and 0.002% TWEEN 20. GSH and TWEEN 20 were added to the buffer fresh daily. Just prior to use, an in-house preparation of recombinant human DPP-1 (240 µM stock, MW 49.6 kD) was diluted 600-fold in assay buffer containing fresh 2 mM dithiothreitol (DTT) to activate the enzyme, then diluted into assay buffer (without DTT) 133-fold for a DPP-1 working solution of 3 nM. Test compounds were diluted in DMSO for 20x their final assay concentrations.
Additions to a 96-well black Costar 3915 plates were as follows: 90 µL of 11 µM GR-AMC, 5 µL test compound (followed by mixing), and 5 µL 3 nM DPP-1 to start the reaction. Fluorescent reactions were monitored kinetically at 360 nm excitation, 440 nm emission on a Molecular Devices Spectramax XPS reader. The Softmax Pro software of the reader determined the initial velocity of the selected data (the first 3-5 minutes of the reaction), and the best linear regression fit of the initial kinetic data. Final assay conditions were 0.15 nM DPP-1, 10 uM GR-AMC, 50 mM HEPES, pH 7.0, 100 mM NaCl, 2 mM GSH, 0.002% TWEEN 20, 1 uM DTT, 5.0 % DMSO. Initial velocity rates were plotted vs. test compound concentration by use of a four-parameter logistics equation (nonlinear regression, sigmoidal dose-response (variable slope), with fixed Hill (1.0) using GraphPad Prism® software for determination of DPP-1 IC50. Within-run assay coefficient of variation (CV) was generally <10%; between-run CV <20%.
Representative compounds of the present invention were tested according to the procedure as described above, with results as listed in Table 5, below. Table 5: DPP-1 Inhibition

Row | Compound | IC50 [nM]
1 | N[C@@H](Cc1cccs1)C(=O)N1CCC(Cc2ccc(-c3ccccc3)cc2)(C(=O)N2CCC3CCCCC3C2)CC1 (stereo partly shown) [Compound 7] | 1300
2 | CC[C@H](N)C(=O)N1CCC(Cc2ccc(C(F)(F)F)cc2)(C(=O)OCC2CCCCC2)CC1 [Compound 18] | 5400
3 | CC[C@H](N)C(=O)N1CCC(Cc2cccc(-c3ccccc3)c2)(C(=O)OCC2CCCCC2)CC1 [Compound 29] | 9500
4 | N[C@@H](Cc1c[nH]cn1)C(=O)N1CCC(Cc2cccc(-c3ccccc3)c2)(C(=O)OCC2CCCCC2)CC1 [Compound 31] | 5800
5 | CSC[C@H](N)C(=O)N1CCC(Cc2ccc(-c3ccccc3)cc2)(C(=O)NC2CCCCC2)CC1 [Compound 38] | 750
6 | N#CC1(c2cc(C(F)(F)F)cc(C(F)(F)F)c2)CCN(C(=O)C(N)Cc2cccs2)CC1 (stereo not shown) [Compound 118] | 3400

same assay, conditions: recombinant human DPP-1 0.15 nM, 10 uM GR-AMC, pH 7.0, room temperature; average value where tested multiple times; read-out: IC50

Row | Compound | IC50 [nM]
7 | N[C@@H](Cc1cccs1)C(=O)N1CCC(Cc2ccc(-c3ccccc3)cc2)(C(=O)NCC2CCOCC2)CC1 [Compound 6, (S)-1-(2-amino-3-(thiophen-2-yl)propanoyl)-4-(biphenyl-4-ylmethyl)-N-((tetrahydro-2H-pyran-4-yl)methyl)piperidine-4-carboxamide hydrochloride] | 74
8 | N#Cc1ccc(CC2(C(=O)OCC3CCCCC3)CCN(C(=O)[C@@H](N)Cc3cccs3)CC2)cc1 [Compound 15, (S)-cyclohexylmethyl 1-(2-amino-3-(thiophen-2-yl)propanoyl)-4-(4-cyanobenzyl)piperidine-4-carboxylate hydrochloride] | 83
9 | C#CC[C@H](N)C(=O)N1CCC(Cc2ccc(-c3ccccc3)cc2)(C(=O)NC2CCCCC2)CC1 [Compound 35] | > 20000
10 | COc1cccc(-c2ccc(CC3(C(=O)NC4CCCCC4)CCN(C(=O)[C@@H](N)Cc4cccs4)CC3)cc2)c1 [Compound 47, (S)-1-(2-amino-3-(thiophen-2-yl)propanoyl)-N-cyclohexyl-4-((3'-methoxybiphenyl-4-yl)methyl)piperidine-4-carboxamide hydrochloride] | 34
11 | CN(C)C(=O)c1ccc(CC2(C(=O)NC3CCCCC3)CCN(C(=O)[C@@H](N)Cc3cccs3)CC2)cc1 [Compound 59, (S)-1-(2-amino-3-(thiophen-2-yl)propanoyl)-N-cyclohexyl-4-(4-(dimethylcarbamoyl)benzyl)piperidine-4-carboxamide hydrochloride] | 86
12 | CS(=O)(=O)CC[C@H](N)C(=O)N1CCC(Cc2ccc(I)cc2)(C(=O)NC2CCCCC2)CC1 [Compound 74] | > 20000
13 | N[C@@H](Cc1cccs1)C(=O)N1CCC(Cc2ccccc2C(=O)O)(C(=O)NC2CCCCC2)CC1 [Compound 80, 2-[1-(2-(S)-Amino-3-thiophen-2-yl-propionyl)-4-cyclohexylcarbamoyl-piperidin-4-ylmethyl]-benzoic acid hydrochloride] | 220
14 | N[C@@H](Cc1cccs1)C(=O)N1CCC(Cc2ccc(NS(=O)(=O)c3ccccn3)cc2)(C(=O)NC2CCCCC2)CC1 [Compound 87, (S)-1-(2-amino-3-(thiophen-2-yl)propanoyl)-N-cyclohexyl-4-(4-(pyridine-2-sulfonamido)benzyl)piperidine-4-carboxamide hydrochloride] | 20
15 | CC(=O)Nc1ccc(CC2(C(=O)NC3CCCCC3)CCN(C(=O)[C@@H](N)Cc3cccs3)CC2)cc1 [Compound 90, (S)-4-(4-acetamidobenzyl)-1-(2-amino-3-(thiophen-2-yl)propanoyl)-N-cyclohexylpiperidine-4-carboxamide hydrochloride] | 49
16 | CC[S+]([O-])CCC(N)C(=O)N1CCC(Cc2ccc(-c3ccccc3)cc2)(C(=O)NCC2CCCCC2)CC1 (stereo not shown) [Compound 107] | > 20000
17 | COC(=O)C1CCC(NC(=O)C2(c3ccccc3)CCN(C(=O)C(N)Cc3cccs3)CC2)CC1 (stereo not shown) [Compound 109] | 25
18 | N[C@@H](Cc1cccs1)C(=O)N1CCC(C(=O)N[C@H]2CC[C@H](C(=O)O)CC2)(c2ccccc2)CC1 [Compound 111, 4-{[1-(2-(S)-Amino-3-thiophen-2-yl-propionyl)-4-phenyl-piperidine-4-carbonyl]-amino}-trans-cyclohexanecarboxylic acid] | 89
19 | COC(=O)C1CCC(NC(=O)C2(c3ccccc3)CCN(C(=O)C(N)Cc3cccs3)CC2)CC1 (stereo not shown) [Compound 113] | 70
20 | NC(=O)c1ccc(CC2(C(=O)NCC3CCCCC3)CCN(C(=O)[C@@H](N)Cc3cccs3)CC2)cc1 [Compound 116, (S)-1-(2-amino-3-(thiophen-2-yl)propanoyl)-4-(4-carbamoylbenzyl)-N-(cyclohexylmethyl)piperidine-4-carboxamide hydrochloride] | 50
21 | NC(=O)c1ccc(CC2(C(=O)NC3CCC(O)CC3)CCN(C(=O)C(N)Cc3cccs3)CC2)cc1 (stereo not shown) [Compound 117] | 330
22 | NC(C(=O)N1CCC(Cc2ccc(-c3ccccc3)cc2)(C(=O)NCC2CCCCC2)CC1)C(O)c1cccs1 (stereo not shown) [Compound 123] | 820
23 | N#Cc1ccc(CC2(C(=O)NC3CCC(O)CC3)CCN(C(=O)C(N)Cc3cccs3)CC2)cc1 (stereo not shown) [Compound 125] | 160
24 | N[C@@H](Cc1cccs1)C(=O)N1CCC(Cc2ccc(-c3nnn[nH]3)cc2)(C(=O)NC2CCCCC2)CC1 [Compound 126, (S)-4-(4-(1H-tetrazol-5-yl)benzyl)-1-(2-amino-3-(thiophen-2-yl)propanoyl)-N-cyclohexylpiperidine-4-carboxamide hydrochloride] | 170
25 | NC(Cc1cccs1)C(=O)N1CCC(Cc2ccc(-c3nnn[nH]3)cc2)(C(=O)NC2CCC(O)CC2)CC1 (stereo not shown) [Compound 128] | 690
26 | Cc1ccc(C2(C(=O)NC3CCC(O)CC3)CCN(C(=O)C(N)Cc3cccs3)CC2)cc1 (stereo not shown) [Compound 131] | 140
27 | N[C@@H](Cc1cccs1)C(=O)N1CCC(C(=O)NCC2CCCCC2)(c2cc(C(F)(F)F)cc(C(F)(F)F)c2)CC1 [Compound 133, 1-(2-(S)-Amino-3-thiophen-2-yl-propionyl)-4-(3,5-bis-trifluoromethyl-phenyl)-piperidine-4-carboxylic acid cyclohexylmethylamide hydrochloride] | 67
28 | CN1CCC(CNC(=O)C2(c3ccccc3)CCN(C(=O)C(N)Cc3cccs3)CC2)CC1 (stereo not shown) [Compound 152] | 820
